According to patent US20250026796A1 (priority 2022, published 2025):

Target: SARS-CoV-2 E (2E) (Severe acute respiratory syndrome coronavirus 2, UniProt P0DTC4)
Assay type: cell-based

SARS-CoV-2 E (2E), sequence (P0DTC4 whole entry, looked up): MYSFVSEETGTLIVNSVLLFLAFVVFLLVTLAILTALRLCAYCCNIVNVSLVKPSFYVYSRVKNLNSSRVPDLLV

MYSFVSEETGTLIVNSVL [MY18]
Relative fluorescent intensity of DND-189 dye (proton homeostasis): significantly restores the proton homeostasis
